Experimental data: patent US10835533B2, “1 -((3S,4R)-4-(3-fluorophenyl)-1-(2-methoxyethyl)pyrrolidin-3-yl)-3-(4-methyl-3-(2-methylpyrimidin-5-yl)-1-phenyl-1H-pyrazol-5-yl)urea as a TrkA kinase inhibitor” (Array BioPharma Inc., priority 2014, dated 2020)

How the values were obtained:
[1] = target: T1, CHO-K1 cells transfected with human wild type TrkA (Homo sapiens, UniProt P04629); test: TrkA Cell Assay, phospho-TrkA ELISA (Example B); type: cell-based; details: assay of Example B, 30 ng/mL human NGF, read-out: averaged IC50 value, phospho-TrkA
T1 construct: expressed in transfected cells; host or cells: CHO-K1
Description: CHO-K1 cells transfected with human wild type TrkA were plated in a 96-well flat-bottom plate at 3×10^5 cells/well in complete DMEM medium containing 10% FBS and allowed to attach for 24 hours at 37° C., 5% CO2. Medium was then replaced with complete serum free assay medium and the cells were serum starved for 1 hour at 37° C., 5% CO2. Cells were treated with Compound 1, 2 or 3 using 1:3 serial dilutions with final concentrations ranging from 1 μM to […]. The compound was incubated on cells for 1 hour at 37° C., 5% CO2. Cells were then stimulated with a final concentration of 30 ng/mL human NGF for 7 minutes at 37° C., 5% CO2. Medium was removed and cells were lysed with lysis buffer containing phosphatase and protease inhibitors. Phospho-TrkA was measured by ELISA (R&D Catalog No. DYC2578). The ELISA captured total TrkA and detected total phosphor-tyrosine. Optical density was measured for each well using a Versamax reader at a wave length of 450 nm. The IC50 values were determined by fitting a four parameter model to the percent of control data.

[2] = IV clearance, 1 mg/kg IV, mouse; type: in vivo; details: for in vivo/in vitro correction factor: microsomal CLh divided by IV CL; for clearance: plasma, 1 mg/kg IV
Description: (§1) In Table 1, the predicted human IV clearance values were calculated from compound concentration-versus-time data in plasma collected from pre-clinical species (mouse, rat, dog and monkey) following 1 mg/kg intravenous (IV) doses. Concentrations of compound in plasma were measured by LC-MS (liquid chromatography-mass spectrometry). AUCinf values (Area under the plasma concentration-time curve for a dosing interval from time 0 extrapolated to infinity) for individual Cp/t curves (concentration of the drug in plasma at any time t) were determined using linear-trapezoidal integration and first order extrapolation from terminal points of the Cp/t curves, and clearance (CL) was calculated using Dose/AUCinf.

[3] = IV clearance, 1 mg/kg IV, rat; type: in vivo; details: for in vivo/in vitro correction factor: microsomal CLh divided by IV CL; for clearance: plasma, 1 mg/kg IV
Description: as §1
(§2) Each of Compound 1, Compound 2, and Compound 3 was formulated by adding the compound (dry) to 20% Trappsol® (hydroxypropyl Beta cyclodextrin; CDT, Inc.) (aq) pH 5.0 and vortexing until a homogeneous suspension (PO) or solution (IV) was achieved.
For intravenous dosing, animals were anesthetized with 3% isoflurane, balanced O2. 1 mg/kg of Compound 1, Compound 2, and Compound 3 was administered at a dose volume of 1 mL/kg to the lateral tail vein. Blood was drawn from the opposite lateral tail vein while the animal was under anesthesia (3% isoflurane balanced with O2, 0.2 mL/timepoint) into NaEDTA tubes (1.5% v/v) at the following time points: 1, 5, 15, 30 minutes, and 1, 2, 4, 8 and 24 hours, and mixed thoroughly.
(§3) A single 12-point calibration curve was prepared by first serially diluting (3-fold) a 40-μg/mL stock solution of Compound 1, Compound 2, and Compound 3 in DMSO to provide standard solutions. Plasma (20 μL) was then added to the extraction plate, and 2.5 μL of each standard solution was added to the naïve plasma. A stock solution of an internal standard (10.0 μL of 2.5 μg/mL in acetonitrile) subsequently was added to each standard and sample solution. Proteinaceous material was precipitated from 20 μL of plasma with the addition of 317.5 μL of acetonitrile for a total volume of 350 μL. Samples were vortex-mixed for 5 minutes and spun in an Allegra X-12R centrifuge (Beckman Coulter, Fullerton, Calif.) for 15 minutes at approximately 1,500×g at 4° C. A 100-μL aliquot of each supernatant was transferred via a 550 μL Personal Pipettor (Apricot Designs, Monrovia, Calif.) to 96-well plates and diluted 1:1 with HPLC grade water. The resulting plates were sealed with plate mats and the amount of Compound 1n the plasma was analyzed by LC-MS/MS.
(§4) The LC-MS/MS system was comprised of an HTC-PAL autosampler (Leap Technologies, Inc., Carrboro, N.C.), an HP1100 HPLC (Agilent Technologies Inc., Santa Clara, Calif.), and an API4000 triple quadrupole mass spectrometer (Applied Biosystems, Foster City, Calif.). Chromatographic retention of the analyte and internal standard was achieved using a Phenomenex® Synergi 4μ Hydro-RP 80A column (2.1×30 mm, 4 μm particle size; Phenomenex, Torrance, Calif.) in conjunction with gradient conditions using mobile phases A (10 mM ammonium acetate in aqueous 0.1% formic acid and 1% isopropyl alcohol) and B (10 mM ammonium acetate in 89.9% acetonitrile, 10% methanol, 0.1% formic acid). The total run time, including re-equilibration time, for a single injection was 3.5 minutes and the flow rate was 0.8 mL/minute. Solvent B was increased from 5 to 95% in 1.0 minute, held at 95% for 1.0 minute, and then decreased to 5% in 0.1 minute.
The total run time, including re-equilibration time, for a single injection was 3.5 minutes and the flow rate was 0.8 mL/min. Solvent B was increased from 5 to 95% in 1.0 minutes, held at 95% for 1.0 minute, and then decreased to 5% in 0.1 minute. Mass spectrometric detection of the analytes was accomplished using ESI+ ionization mode. Ion current was optimized during infusion of a stock solution of Compound 1, Compound 2, and Compound 3. Analyte responses were measured by multiple reaction monitoring (MRM) of transitions unique to each compound. […]

[4] = Male Sprague Dawley rat pharmacokinetics, oral 10 mg/kg (Example D); type: in vivo; details: for Trough concentration / AUC / Cmax: Rat, oral dose 10 mg/kg, plasma; for AUC / Cmax: male, Sprague Dawley; for Plasma:Brain ratio: Rat PO 10 mg/kg, plasma and brain collected 2 hours post dose
Description: as §2
For oral dosing, rats received a single oral dose following an overnight fast. Blood was drawn from the lateral tail vein while the animal was anesthetized with 3% isoflurane balanced with O2 (0.2 mL/timepoint) into NaEDTA tubes (1.5% v/v) at the following time points: 5, 15, and 30 minutes, and 1, 2, 4, 8, 24 and 26 hours, and mixed thoroughly. Following the 24 hour blood collection, animals were redosed orally, and plasma and brain were collected 2 hours post dose for compound analysis. Brains were perefused with saline before removal, weighed and flash frozen in liquid nitrogen until analysis by LCMS/MS. Plasma was separated by centrifugation at 14,000 rpm for 10 minutes and the plasma samples were transferred to 96 well plate tubes with rubber caps and stored at −20±5° C. until analyzed.
as §3, §4
A single 12-point calibration curve was prepared by first serially diluting (3-fold) a 40-μg/mL stock solution of each of Compound 1, Compound 2, and Compound 3 in DMSO. Brain homogenate was prepared by adding 5.0 mL of water to conical 50 mL tubes containing brains. The contents of the tubes were homogenized using an Omni-Prep Multi Sample Homogenizer (Kennesaw, Ga.) at 22,000 RPM for 180 seconds. The homogenate (100 μL) was added to the extraction plate, and 2.5 μL each standard solution was added to the naïve brain homogenate. A stock solution of an internal standard (10.0 μL of 2.5 μg/mL in acetonitrile) subsequently was added to each standard and sample solution. Proteinaceous material was precipitated from 100 μL of […] with the addition of 237.5 μL of acetonitrile for a total volume of 350 μL. […]

T1 sequence (P04629 33-796): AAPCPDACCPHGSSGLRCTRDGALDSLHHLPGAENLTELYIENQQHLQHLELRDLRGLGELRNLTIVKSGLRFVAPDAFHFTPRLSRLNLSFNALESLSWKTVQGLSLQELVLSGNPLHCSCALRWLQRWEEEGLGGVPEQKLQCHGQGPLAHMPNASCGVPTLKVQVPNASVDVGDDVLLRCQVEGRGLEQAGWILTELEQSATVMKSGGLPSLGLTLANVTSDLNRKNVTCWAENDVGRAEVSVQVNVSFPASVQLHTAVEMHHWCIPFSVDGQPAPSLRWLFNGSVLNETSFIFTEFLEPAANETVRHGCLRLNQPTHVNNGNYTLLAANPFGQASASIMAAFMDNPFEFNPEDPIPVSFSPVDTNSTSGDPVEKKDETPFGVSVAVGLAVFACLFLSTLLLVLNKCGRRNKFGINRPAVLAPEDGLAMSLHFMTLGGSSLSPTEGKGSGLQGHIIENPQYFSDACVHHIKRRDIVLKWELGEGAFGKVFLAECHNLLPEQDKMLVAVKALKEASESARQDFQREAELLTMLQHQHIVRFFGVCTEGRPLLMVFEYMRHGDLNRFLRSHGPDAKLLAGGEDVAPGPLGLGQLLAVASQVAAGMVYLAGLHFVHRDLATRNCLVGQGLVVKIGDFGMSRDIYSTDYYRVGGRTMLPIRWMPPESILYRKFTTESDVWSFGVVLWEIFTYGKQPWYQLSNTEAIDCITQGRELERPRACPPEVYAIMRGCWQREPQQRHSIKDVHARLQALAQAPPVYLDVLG

IC50 [1]	in vivo/in vitro correction factor [2]	clearance [2]	in vivo/in vitro correction factor [3]	clearance [3]	Trough concentration [4]	AUC [4]	Cmax [4]	Plasma:Brain ratio [4]	Compound
6.1 nM	0.85	71 mL/min/kg	0.88	26 mL/min/kg	0.00044 µg/mL	1060 ng·h/mL	498 ng/mL		COCCN1C[C@@H](NC(=O)Nc2c(C)c(-c3cnn(C)c3)nn2-c2ccccc2)[C@H](c2ccc(F)cc2)C1 [Compound 3, 1-(1′,4-dimethyl-1-phenyl-1H,1′H-[3,4′-bipyrazol]-5-yl)-3-((3S,4R)-4-(4-fluorophenyl)-1-(2-methoxyethyl)pyrrolidin-3-yl)urea]
1.3 nM	1.36	42 mL/min/kg	0.76	29 mL/min/kg	0.000446 µg/mL	925 ng·h/mL	420 ng/mL	11	COCCN1C[C@@H](NC(=O)Nc2c(C)c(-c3cnc(C)nc3)nn2-c2ccccc2)[C@H](c2ccc(F)c(F)c2)C1 [Compound 2, 1-((3S,4R)-4-(3,4-difluorophenyl)-1-(2-methoxyethyl)pyrrolidin-3-yl)-3-(4-methyl-3-(2-methylpyrimidin-5-yl)-1-phenyl-1H-pyrazol-5-yl)urea]
1.9 nM			1.47	15 mL/min/kg	0.00134 µg/mL	2570 ng·h/mL	1060 ng/mL	21	COCCN1C[C@@H](NC(=O)Nc2c(C)c(-c3cnc(C)nc3)nn2-c2ccccc2)[C@H](c2cccc(F)c2)C1 [Compound 1, 1-((3S,4R)-4-(3-fluorophenyl)-1-(2-methoxyethyl)pyrrolidin-3-yl)-3-(4-methyl-3-(2-methylpyrimidin-5-yl)-1-phenyl-1H-pyrazol-5-yl)urea]
